# Test system: MDA-MB-361 cells
# Assay: MDA-MB-361 bone micrometastasis xenograft (IIA injection)
# [1] = significance vs PBS group, end of experiment
compound,measurement,setting,value
"NCCCC(O)(P(=O)(O)O)P(=O)(O)O [ALN, Alendronate]",bone mass loss of femurs (microCT),82 days after tumor implantation,significant losses of bone mass
same,development of micrometastases / lesions (BLI imaging),"ALN 10 μg/kg, Tras, Tras-ALN 1 mg/kg, retro-orbital twice a week",accumulated rapidly
same,"tumor burden, histomorphometric analysis of tibiae and femurs",H&E bone sections,high tumor burdens
same,BLI Fold-increase,"significance vs PBS group, BLI of day 87/BLI of day 6, two-way ANOVA",NS (NS represents P > 0.05)
same,Osteoclast activity Osteoclast number,"significance vs PBS group, TRAP-stained tibia/femur sections, end of experiment",* (* P < 0.05)
same,Osteoclast activity Serum Calcium,[1],NS (NS represents P > 0.05)
same,Osteoclast activity Serum TRACP 5b,[1],NS (NS represents P > 0.05)
same,Survival,"significance vs PBS group, endpoint BLI intensity over 10^7, log-rank test",NS (NS represents P > 0.05)
same,BLI Progression,"significance vs PBS group, whole-body BLI over the course of the experiment, two-way ANOVA",NS (NS represents P > 0.05)

# From patent US20240299568A1, “BONE-SPECIFIC DELIVERY OF POLYPEPTIDES” (William Marsh Rice University, priority 2021, published 2024)
